Data reported in patent US7618978B2, “Amides as BACE inhibitors” (Eli Lilly and Company, priority 2004, dated 2009).
Where a name gives a salt, the structure may show the parent alone.

Legend:
[1] = molecular target: T1, beta-secretase activity (Homo sapiens, UniProt P56817); assay: Whole Cell Assay for Measuring the Inhibition of Beta-Secretase Activity; format: cell-based; details: HEK293/APP751sw or HEK293/APP751wt cells, 4 to 6 hours at 37C, Abeta, sAPPbeta-lowering effect by sandwich ELISA
T1 construct: endogenous in cells; host or cells: HEK293p (ATCC CRL-1573) stably expressing human APP751sw or APP751wt
T1 sequence (P56817 46-501): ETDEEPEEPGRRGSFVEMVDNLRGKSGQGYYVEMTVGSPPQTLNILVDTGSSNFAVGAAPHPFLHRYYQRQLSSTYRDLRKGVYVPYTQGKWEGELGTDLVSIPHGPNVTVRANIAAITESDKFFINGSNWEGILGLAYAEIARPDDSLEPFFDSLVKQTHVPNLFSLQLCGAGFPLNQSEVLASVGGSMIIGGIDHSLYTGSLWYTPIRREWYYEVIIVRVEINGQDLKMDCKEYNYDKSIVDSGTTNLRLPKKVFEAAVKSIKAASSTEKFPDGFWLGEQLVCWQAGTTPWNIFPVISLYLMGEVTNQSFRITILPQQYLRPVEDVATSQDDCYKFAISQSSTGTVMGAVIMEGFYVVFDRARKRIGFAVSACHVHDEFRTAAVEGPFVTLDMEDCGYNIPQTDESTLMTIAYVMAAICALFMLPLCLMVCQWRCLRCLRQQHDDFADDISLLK
Protocol: (§1) For in vitro enzymatic and cellular assays, test compounds are prepared in DMSO to make up a 10 millimolar stock solution. The stock solution is serially diluted (in a 1:3, 1:2.5, 1:2, or 1:1 dilution series) in DMSO to obtain a final compound concentration of 10 millimolar to 1 micromolar at the first highest concentration of a ten-point dilution curve in a 96-well round-bottom plate right before conducting the in vitro enzymatic and whole assays.
The routine whole cell assay for the measurement of inhibition of beta-secretase activity utilizes the human embryonic kidney cell line HEK293p (ATCC Accession No. CRL-1573) stably expressing a human APP751 cDNA containing the naturally occurring double mutation […] to Asn651Leu652, commonly called the Swedish mutation (noted HEK293/APP751sw) and shown to overproduce Abeta (Citron et al., 1992, Nature 360:672-674). Human embryonic kidney HEK293p cells stably expressing wild-type human APP751 cDNA (noted HEK293/APP751wt) are also used to assess the inhibition of beta-secretase activity. In vitro Aβ reduction assays have been described in the literature (See: Dovey, et al., Journal of Neurochemistry, 76, 173-181 (2001); Seubert, et al., Nature, 361, 260 (1993); and Johnson-Wood, et al., Proc. Natl. Acad. Sci. USA, 94, 1550-1555 (1997))
Cells (HEK293/APP751sw or HEK293/APP751wt, at 3×10^4 cells/well, containing 200 microliters culture media, DMEM containing 10% FBS) are incubated at 37C for 4 to 6 hours in the presence/absence of inhibitors (diluted in DMSO) at the desired concentration. At the end of the incubation, conditioned media are analyzed for beta-secretase activity, for example, by analysis of cleavage fragments, Abeta peptide and sAPPbeta. Abeta peptides are measured by a sandwich ELISA, using monoclonal 266 as a capture antibody and biotinylated 3D6 as reporting antibody. The sAPPbeta fragments are analyzed by a sandwich ELISA, using monoclonal 8E5 antibody as a capture antibody and rabbit polyclonal 192sw or 192wt as a reporting antibody. Note that sAPPbeta is the cleavage product of full length APP by BACE 1. The concentration of sAPPbeta released in the conditioned media following the compound treatment corresponds to the activity of BACE1 under such conditions. The 10-point inhibition curve was plotted and fitted with the four-parameter logistic equation to obtain the EC50 and IC50 values for the Abeta, sAPPbeta-lowering effect. Data for selected compounds of the invention tested in this assay are contained in the following table.

[2] = molecular target: T2, human BACE1(1-460):Fc (Homo sapiens, UniProt P56817); assay: BACE1 mcaFRET Assay; format: biochemical; details: FRET substrate 15 micromolar, pH 4.6, 16 to 24 hours at room temperature
T2 construct: made in house; host or cells: HEK293 cells, transient transfection, conditioned medium
T2 sequence (P56817 22-460): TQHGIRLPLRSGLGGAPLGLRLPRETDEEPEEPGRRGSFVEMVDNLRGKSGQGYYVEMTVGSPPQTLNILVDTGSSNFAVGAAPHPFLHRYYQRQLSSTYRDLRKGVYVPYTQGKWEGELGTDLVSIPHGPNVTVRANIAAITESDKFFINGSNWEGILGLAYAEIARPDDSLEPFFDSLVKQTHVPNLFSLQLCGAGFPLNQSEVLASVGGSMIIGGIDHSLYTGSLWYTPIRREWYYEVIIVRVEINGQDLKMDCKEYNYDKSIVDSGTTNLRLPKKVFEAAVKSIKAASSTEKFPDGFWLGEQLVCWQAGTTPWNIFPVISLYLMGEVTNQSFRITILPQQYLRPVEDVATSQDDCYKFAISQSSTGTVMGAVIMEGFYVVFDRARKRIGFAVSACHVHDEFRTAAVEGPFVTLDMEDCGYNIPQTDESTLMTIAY
Protocol: as §1
Serial dilutions of test compounds are prepared as described above. Two microliter of each dilution is added to each well on row A to H of a corresponding low protein binding black plate to which 50 microliter of 50 millimolar ammonium acetate, pH 4.6, 1 mM Triton X-100, 1 mg/ml Bovine Serum Albumin, and 15 micromolar of FRET substrate (sequence: (MCA)-S-E-V-N-L-D-A-E-F-R-K(Dnp)-R-R-R-R-NH2) for BACE1 activity are pre-added. The content is mixed well on a plate shaker for 10 min. Fifty microliter of two hundred picomolar human BACE1(1-460):Fc (See: Vasser, et al., Science, 286, 735-741 (1999)) in the same reaction buffer described above is added to the plate containing substrate and test compounds to initiate the reaction. The relative fluorescence unit (RFU) of the mixture at time 0 is recorded at excitation wavelength 330 nm and emission wavelength 400 nm, after brief mixing on a plate shaker. The reaction plate is covered with aluminum foil and kept in a dark humidified oven at room temperature for 16 to 24 hours. The RFU at the end of incubation is recorded with the same excitation and emission setting. The difference of the RFU at time 0 and the end of incubation represents the activity of BACE1 under the compound-treatment. The 10-point inhibition curve was plotted and fitted with the four-parameter logistic equation to obtain the EC50 and IC50 values. (See: Sinha, et al., Nature, 402, 537-540 (2000)). […] Data for selected compounds of the invention tested in this assay are contained in the following table.
Both human (accession number: AF190725) and murine (accession number: NM_011792) BACE1 were cloned from total brain cDNA by […]. The nucleotide sequences corresponding to amino acid sequences #1 to 460 were inserted into the cDNA encoding human IgG1 (Fc) polypeptide (Vassar et al. 1999). This fusion protein of BACE1(1-460) and human Fc, named huBACE1:Fc, was constructed into the pJB02 vector. Human BACE1(1-460):Fc (huBACE1:Fc) and murine BACE1(1-460):Fc (muBACE1:Fc) were transiently expressed in HEK293 cells. 250 μg cDNA of each construct was mixed with Fugene 6 and added to 1 liter HEK293 cells. Four days after the transfection, conditioned media were harvested for purification. Purification of huBACE1:Fc and muBACE1:Fc.
Conditioned media of […] cell transiently transfected with huBACE1:Fc or muBACE1:Fc cDNA were collected. Cell debris was removed by filtering the conditioned media through 0.22 μm sterile filter. 5 ml Protein A-agarose (bed volume) was added to 4 liter conditioned media. This mixture was gently stirred overnight at […]. The Protein A-agarose resin was collected and packed into a low-pressure chromatography column. The column was washed with 20× bed volumes of PBS at flow rate 20 ml per hour. Bound huBACE1:Fc or muBACE1:Fc protein was eluted with 50 mM acetic acid, pH 3.6, at flow rate 20 ml per hour. […] The purity of final product was assessed by electrophoresis in 4-20% Tris-Glycine SDS-PAGE. […]

IC50 [1]	IC50 [2]	Structure (SMILES)
17.1 µM	13.1 µM	CC(=O)NC(Cc1cc(F)cc(F)c1)C(O)C1CCC(OCc2ccccc2)CN1 [Example 19, N-{(1S,2R)-2-[(5R,2R)-5-Benzyloxy-2-piperidin-2-yl]-1-(3,5-difluoro-benzyl)-2-hydroxy-ethyl}-acetamide hydrochloride]
0.045 µM	0.003 µM	CCC(C)Nc1cc(C(=O)N[C@@H](Cc2ccccc2)[C@@H](O)[C@H]2CN(C(C)=O)CCN2)cc(N(C)S(C)(=O)=O)n1 (stereo partly drawn) [Example 7, N-[(1S,2R)-2-(R)-(4-Acetylpiperazin-2-yl)-1-benzyl-2-hydroxyethyl]-2-sec-butylamino-6-(methanesulfonyl-methylamino)-isonicotinamide hydrochloride]
0.041 µM	0.001 µM	CCC(C)Nc1cc(C(=O)NC(Cc2ccccc2)C(O)C2NCCN(C)C2=O)cc(N(C)S(C)(=O)=O)n1 [Example 3, N-[1-(S)-Benzyl-2-hydroxy-2-(4-methyl-3-oxopiperazin-2-yl)-ethyl]-2-(S)-sec-butylamino-6-(methylsulfonyl-methylamino)-isonicotinamide hydrochloride]

Structure (SMILES)	IC50 [1]	IC50 [2]
CC(=O)N[C@@H](Cc1cc(F)cc(F)c1)[C@H](O)[C@H]1CC[C@@H](OCC(C)C)CN1 [Example 58, N-(1S,2R)-{1-(3,5-Difluoro-benzyl)-2-hydroxy-2-[(5R,2R)-5-isobutoxy-piperidin-2-yl]-ethyl}-acetamide hydrochloride]		6.8 µM
CC(=O)N[C@@H](Cc1cc(F)cc(F)c1)[C@H](O)[C@H]1CC[C@@H](OCCC(C)C)CN1 [Example 55, N-(1S, 2R)-{1-(3,5-Difluoro-benzyl)-2-hydroxy-2-[(5R,2R)-5-(3-methyl-butoxy)-piperidin-2-yl]-ethyl}-acetamide hydrochloride]	6.1 µM	6.9 µM
